“Also recorded” adds a separate entry of the source.
System: R. equi
Assay: R. equi intrabronchial challenge model of pneumonia in foals
Type: in vivo
Details: SLO 2 IU subcutaneous twice a day without antibiotics
Description: Animals: 24 foals (average age 4 +/− days old) were used in this challenge model and two additional foals served as uninfected controls. The foals were raised on a Veterinary Science farm and kept with their mares throughout the study. Foals were evaluated shortly after birth for inclusion in the study using the following criteria; normality in physical examination, absence of lung sounds on auscultation, normal temperature, and unremarkable ultrasound examination of the lungs. None of the foals received anti-rhodococcal plasma or other treatments prior to enrollment in the study. The foals were moved with their dams to individual box stalls in a BSL2 isolation facility. Baseline values for heart rate, respiratory rate, temperature, fibrinogen concentration, and leukocyte count were obtained. […]
After the foals were sedated, a flexible fiberoptic endoscope was used to deliver the bacteria suspended in 35 ml of sterile PBS into both main bronchi. […] The foals were returned to their stalls and dams and monitored daily for changes in rectal temperature, respiration, and pulse as determined by physical exam and auscultation of the lungs. […] Clinical signs recorded included lung auscultations, overall attitude, appetite, resting respiratory rate and pulse. […] Daily observation of attitude, appetite, lung auscultation were scored (0-4) and combined to generate an overall daily score for each foal. […]

Substance: streptolysin O [SLO alone]
- treatment effect / clinical course: deteriorated rapidly and required early euthanasia; also recorded: no treatment effect

From US20140120191A1, “METHOD OF TREATING A DISORDER ASSOCIATED WITH S[…]” (BEECH TREE LABS INC., priority 2011, published 2014)
